What was measured:
H9C2 cardiomyocytes [1] = experiment: Quantification of phenylephrine-induced EGFP synthesis as surrogate for cell size (hypertrophy); format: cell-based, rat; details: for SUL EGFP Inhibition (%): 30 μM SUL compound, calculated as 100%-Emax; for Expression of EGFP induced by phenylephrine (FIG. 3): preincubation with 30 μM compound
Method: (§1) Rat H9C2 cardiomyoblasts (ATCC CRL-1446) were maintained in DMEM medium containing 10% fetal bovine serum and 1% Penicillin-Streptomycin solution (Sigma-Aldrich) and passaged when the cultures reach a confluency of 70%. Prior to experiments, H9C2 myoblasts were differentiated to cardiomyocytes by serum reduction (to 1%) and stimulation with 20 nM retinoic acid for 5 days. Differentiated H9C2 cardiomyocytes were seeded at 0.6·10^5 cells/cm^2 for all experiments.
H9C2 cardiomyocytes (0.6·10^5 cells/cm2) were infected with CMV-copGPF (MOI 10) in culture medium without serum for 24 h. H9C2 cardiomyocytes were pre-incubated with 30 μM SUL compounds under standard culture conditions for 30 min and then stimulated with phenylephrine (dose range 2·10^−5 to 1·10^−11 M) for an additional period of 24 h. Thereafter H9C2 cardiomyocytes were lysed in 100 μl soft lysis buffer (25 mM Tris, 2 mM Dithiothreitol, 2 mM EDTA, 1% Triton X-100, pH 7.4). per well and fluorescence intensity of the obtained supernatant was recorded in a CLARIOStar Plus plate reader (BMG Labtech) equipped with a FITC filter set (excitation 488 nm with 10 nm bandwidth; emission 515 with a 20 nm bandwidth).
All experiments were performed in triplicate per condition and averaged. Data obtained from two individual experiments were used for evaluation in GraphPad Prism 8.0 (GraphPad Software Inc, Ca). Average H9C2 cardiomyocyte cell size was associated to average EGFP levels using linear regression. Phenylephrine-induced EGFP synthesis was normalized, using baseline levels as 0% and maximum EGFP recordings as 100%. All datasets were normalized to vehicle controls. 4 parameter non-linear regression was used to determine the efficacy of potency of phenylephrine to induce GFP synthesis. The efficacy of SUL compounds to inhibit phenylephrine-induced EGFP synthesis was calculated as 100%-Emax, wherein Emax is the maximal effect evoked by phenylephrine.

H9C2 cardiomyocytes [2] = experiment: Determination of cell size (cell surface area) after phenylephrine; format: cell-based, rat; details: 24 h
Method: as §1
H9C2 cardiomyocytes were serum starved for 24 h and thereafter exposed to different concentrations of phenylephrine (dose range 2·10^−5 to 1·10^−11 M) for an additional 24 h. Cells were washed in ice-cold PBS and fixed by 2% paraformaldehyde in PBS at room temperature for 10 min. Fixed cells were incubated with 5 μM Rhodamine-conjugated Phalloidin (ThermoFisher Scientific) and washed extensively with PBS. Fluorescent pictures were taken randomly with an Zeiss AxioObserver Z1 microscope and cell size was analyzed with CellProfiler software [McQuin, 2018].

H9C2 cardiomyocytes [3] = experiment: Protein synthesis by H9C2 cardiomyocytes after phenylephrine; format: cell-based; details: Rattus norvegicus, FIG. 2D, read-out: EC50 for increase of protein synthesis

Row | SMILES | SUL EGFP Inhibition (%) (H9C2 cardiomyocytes [1]) | Expression of EGFP induced by phenylephrine (FIG. 3) (H9C2 cardiomyocytes [1]) | other results
1 | C[C@H]1CCC/C=C/[C@@H]2C[C@H](O)C[C@H]2[C@H](O)/C=C/C(=O)O1 [Brefeldin A, reference compound] | – | – | Phenylephrine-induced increase in EGFP fluorescence (FIG. 2F) (H9C2 cardiomyocytes [1]; addition of protein synthesis inhibitor): inhibits the phenylephrine-induced increase in EGFP fluorescence
2 | CNC[C@H](O)c1cccc(O)c1 [Phenylephrine] | – | – | H9C2 cardiomyocyte cell surface area (H9C2 cardiomyocytes [2]; 2·10^−5 M phenylephrine, vehicle-treated control 791±263 μm^2): 3278±296 μm^2; EC50 (H9C2 cardiomyocytes [2]; Rattus norvegicus, H9c2, phenylephrine 1·10^−11 to 2·10^−5 M, FIG. 2A, read-out: EC50 for increase of H9C2 cardiomyocyte cell surface area): 0.74 nM; EC50 (H9C2 cardiomyocytes [1]; Rattus norvegicus, H9C2 cardiomyocytes transformed with CMV-EGFP lentiviral particles, FIG. 2B, read-out: EC50 for increase of EGFP fluorescence): 5.2 nM; EC50 (H9C2 cardiomyocytes [3]): 0.55 nM
3 | Cc1c(C)c2c(c(C)c1O)CCC(C)(C(=O)O)O2 (stereo not shown) [SUL-11, 6-hydroxy-2,5,7,8-tetramethylchroman-2-carboxylic acid (Trolox), reference compound] | 54.05 | reduced the expression of EGFP | –
4 | Cc1c(C)c2c(c(C)c1O)CC[C@@](C)(C(=O)N[C@@H]1CCCNC1)O2 [SUL-13, (S)-6-hydroxy-2,5,7,8-tetramethyl-N-((R)-piperidin-3-yl)chromane-2-carboxamide] | 68.85 | reduced the expression of EGFP | –
5 | COC(=O)CNC(=O)C1(C)CCc2c(C)c(O)c(C)c(C)c2O1 (stereo not shown) [SUL-99, methyl [(6-hydroxy-2,5,7,8-tetramethyl-3,4-dihydro-2H-1-benzopyran-2-carbonyl)amino]acetate, reference compound] | 55.11 | reduced the expression of EGFP | –
6 | Cc1c(C)c2c(c(C)c1O)CC[C@@](C)(C(=O)N1CCN(CCO)CC1)O2 [SUL-138, (S)-(6-hydroxy-2,5,7,8-tetramethylchroman-2-yl)(4-(2-hydroxyethyl)piperazin-1-yl)methanone] | 63.18 | reduced the expression of EGFP | –
7 | Cc1c(C)c(O)c(CC[C@@](C)(O)C(=O)N2CCN(CCO)CC2)c(C)c1O [SUL-138M2, 4-(2,5-dihydroxy-3,4,6-trimethylphenyl)-2-hydroxy-1-(4-(2-hydroxyethyl)piperazin-1-yl)-2-methylbutan-1-one] | 43.92 | – | –
8 | Cc1c(C)c2c(c(C)c1O)CC[C@@](C)(C(=O)N1CCNCC1)O2 [SUL-151, (S)-(6-hydroxy-2,5,7,8-tetramethylchroman-2-yl)(piperazin-1-yl)methanone] | 56.8 | reduced the expression of EGFP | –
